We go through four molecules from patent US20260207614A1, “IRAK4 DEGRADERS AND USES THEREOF” (Kymera Therapeutics, Inc., priority 2022, published 2026).

The nature of data set [1]: Diastereomer interconversion. The conditions noted are these: in vitro and in vivo. Type of data set: physicochemical. An excerpt: (S,R,R)-Compound A and (R,R,R)-Compound A, which are designated as Compound B and Compound C, respectively. In some embodiments, Compound A is Compound B. In some embodiments, Compound A is Compound C. In some embodiments, Compound A is a mixture of Compound B and Compound C. […] In some embodiments, Compound A, Compound B, Compound C, or a pharmaceutically acceptable salt thereof, is amorphous. In some embodiments, Compound A, Compound B, Compound C, or a pharmaceutically acceptable salt thereof, is in crystal form.

In data set [2] the test system is patients with hidradenitis suppurativa (HS). The settings on record: Phase 2 and 3, week 4; cited from earlier work.
For data set [3], the system named is patients with atopic dermatitis (AD). The conditions noted are these: Phase 3, week 4; cited from earlier work.

As for `Cn1c(=O)n([C@H]2CCC(=O)NC2=O)c2cccc(C#CCOC3CCN(C[C@H]4CC[C@H](n5cc(NC(=O)c6cnn7ccc(N8C[C@H]9C[C@@H]8CO9)nc67)c(C(F)F)n5)CC4)CC3)c21` [Compound B, 5-((1R,4R)-2-oxa-5-azabicyclo[2.2.1]heptan-5-yl)-N-(3-(difluoromethyl)-1-((1r,4R)-4-((4-((3-(1-((S)-2,6-dioxopiperidin-3-yl)-3-methyl-2-oxo-2,3-dihydro-1H-benzo[d]imidazol-4-yl)prop-2-yn-1-yl)oxy)piperidin-1-yl)methyl)cyclohexyl)-1H-pyrazol-4-yl)pyrazolo[1,5-a]pyrimidine-3-carboxamide], in data set [1], the interconversion of diastereomers entry is “interconvert rapidly”.

For the molecule `Cn1c(=O)n([C@@H]2CCC(=O)NC2=O)c2cccc(C#CCOC3CCN(C[C@H]4CC[C@H](n5cc(NC(=O)c6cnn7ccc(N8C[C@H]9C[C@@H]8CO9)nc67)c(C(F)F)n5)CC4)CC3)c21` [Compound C, 5-((1R,4R)-2-oxa-5-azabicyclo[2.2.1]heptan-5-yl)-N-(3-(difluoromethyl)-1-((1r,4R)-4-((4-((3-(1-((R)-2,6-dioxopiperidin-3-yl)-3-methyl-2-oxo-2,3-dihydro-1H-benzo[d]imidazol-4-yl)prop-2-yn-1-yl)oxy)piperidin-1-yl)methyl)cyclohexyl)-1H-pyrazol-4-yl)pyrazolo[1,5-a]pyrimidine-3-carboxamide], the interconversion of diastereomers entry in data set [1] was “interconvert rapidly”.

For Adalimumab, in data set [2], the “Responders: AN Count 0/1/2” value is listed as 28-47%^2, 3; the “Responders: HiSCR50” value is 29-51%^3, 4; the “Responders: HiSCR75” value is listed as 20%^4; the “Responders: Pain NRS30” value is given as 39-58%^2, 3, 5. Also, the “ΔAN Count” value in data set [2] is −31%^1.

With Dupilumab, in data set [3], the “Responders: Peak Pruritis NRS, Past Week/Past 24 Hours, first value” is listed as 23%; the “Responders: Peak Pruritis NRS, Past Week/Past 24 Hours, second value” is reported as 40%; the ΔEASI was −52%^1; the “ΔPeak Pruritis NRS: Past Week/Past 24 Hours” value is −34%^1.
